# In patent US20250017207A1 (priority 2021, published 2025):
# Key:
# Format in all cases: cell-based
# Fusarium graminearum = assay: microbe, parasite or virus in culture; settings: 72 h, read-out: EC50 Value
# Gibberella fujikuroi = assay: microbe, parasite or virus in culture; settings: Fusarium fujikuroi, 72 h, read-out: EC50 Value
# Fusarium proliferatum = assay: Petri plate test, inhibition of mycelial growth (NY/T 1156.2-2006); settings: 72 h, mycelial growth on PDA plates, 25° C., three days in darkness
# Description: Certain mixture compositions according to the present invention may show a synergistic effect. This occurs whenever the action of an active ingredient combination is greater than the sum of the actions of the individual components. The combined toxicity of two agents can be evaluated by the Co-Toxicity Coefficient (CTC) according to the Sun-YP method (Yun-Pei, Sun. “Toxicity Index-An Improved Method of Comparing the Relative Toxicity of Insecticides.” Journal of Economic Entomology 1(1950):45-53.). A CTC value of less than 80 indicates an antagonistic effect, a CTC value of 80-120 indicates an additive effect, and a CTC value of greater than or equal to 120 indicates a synergistic effect.
# Component A represents standard Al, and component B represents the component to be mixed with the standard Al. • ATI (Measured toxicity index of a mixture)=(Standard Al's EC50/Mixture's EC50)*100 • TTI (Theoretical toxicity index of a mixture)=(TIA*PA+TIB*PB)*100 • TIA (Toxicity index of component A)=the EC50 of component A/the EC50 of component A • PA: Percentage of component A in the mixture • TIB (Toxicity index of component B)=the EC50 of component A/the EC50 of component B • PB: Percentage of component B in the mixture […]
Structure (SMILES),EC50 (Fusarium graminearum) [µg/mL],EC50 (Gibberella fujikuroi) [µg/mL],EC50 (Fusarium proliferatum) [µg/mL]
"CCOC(=O)/C(C#N)=C(\N)c1ccccc1 [PHM, (Z)-ethyl 2-cyano-3-amino-3-phenylacrylate]",0.0307,0.197,3.08
"O=C(N[C@@H]1CC[C@@H]1c1ccc(Cl)cc1Cl)c1cccnc1C(F)(F)F [cylcobutrifluram, N-[(1,2 cis)-2-(2,4-dichlorophenyl)cyclobutyl]-2-(trifluoromethyl)pyridine-3-carboxamide]",0.0222,0.75,0.882
